These results are taken from US20230357233A1, “HETEROARYL COMPOUNDS, PREPARATION METHODS AND USES THEREOF” (INVENTISBIO CO., LTD., priority 2020, published 2023).

Usually Kd stands for a measure of binding affinity in units of concentration.

Bounds are passed on as bounds.

Experiment [1] addresses Ba/F3_KRAS^G12D cells (Homo sapiens, UniProt P01116, G12D, cells depend on it). The experiment in a line: Ba/F3 KRAS^G12D cell proliferation assay (cell-titer Glo). The format is cell-based. Particulars: cell growth inhibition, treated with the compounds for 3 days, read-out: BaF3_KRAS^G12D IC50.
Experiment [2] concerns the target recombinant human KRAS^G12D protein (Homo sapiens, UniProt P01116, G12D). As to the kind of experiment: Temperature-dependent Fluorescence (TdF) KRAS^G12D protein binding assay. The following applies: 6 μM KRAS^G12D Protein, 10 μM compound, Sypro Orange; Kd calculated from fluorescent shift. Put shortly: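 Sypro Orange thermal-shift assay, heating from 30 to 95 °C with readings every 0.4 °C (ex 470/em 570 nm). Binding is gauged as ΔTm with versus without compound. Kd is calculated from the degree of the unfolding-temperature shift.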

Sequence of Ba/F3_KRAS^G12D cells (P01116 whole entry G12D): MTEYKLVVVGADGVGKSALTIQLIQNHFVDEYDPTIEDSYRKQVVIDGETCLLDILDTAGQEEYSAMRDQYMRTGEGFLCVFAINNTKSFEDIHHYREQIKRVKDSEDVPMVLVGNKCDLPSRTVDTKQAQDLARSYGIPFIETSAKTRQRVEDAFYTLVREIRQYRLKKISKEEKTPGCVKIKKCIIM
Sequence of recombinant human KRAS^G12D protein (P01116 1-188 isoform P01116-2 G12D): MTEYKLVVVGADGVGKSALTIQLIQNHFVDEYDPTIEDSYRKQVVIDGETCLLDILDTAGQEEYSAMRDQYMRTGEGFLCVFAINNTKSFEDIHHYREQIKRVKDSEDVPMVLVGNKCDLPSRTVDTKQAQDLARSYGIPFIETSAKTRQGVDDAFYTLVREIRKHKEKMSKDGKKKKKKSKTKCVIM

Regarding `C#Cc1c(F)ccc2cc(O)cc(-c3nc(OC(C)C)c4c(N5CC6CCC(C5)N6)nc(OC[C@@H]5C[C@@H](F)CN5C)nc4c3F)c12` [Compound 197], in experiment [1], the GI50 is below 0.5 µM. Besides, the Kd in experiment [2] is at most 0.5 µM.

Regarding `Cc1nc(-c2cccc3cccc(CCC#N)c23)c(F)c2nc(OC[C@@]34CCCN3C[C@H](F)C4)nc(N3CC4CCC(C3)N4)c12` [Compound 123], the GI50 in experiment [1] is 0.5 to 5 µM. Further, the Kd in experiment [2] was above 5 µM.

As for `CN1CCC[C@H]1Cn1c(=O)nc(N2CC3CCC(C2)N3)c2cc(F)c(-c3cc(O)cc4ccccc34)nc21` [Compound 39], in experiment [1], the GI50 was above 5 µM. For the same molecule, the dissociation constant (Kd) in experiment [2] is above 5 µM.

Turning to `CCc1cccc2cc(O)cc(-c3nc(O)c4c(N5CC6CCC(C5)N6)nc(OC[C@@]56CCCN5C[C@H](F)C6)nc4c3F)c12` [Compound 133], the GI50 in experiment [1] was in the range of 0.5 to 5 µM. Besides, the Kd in experiment [2] was at most 0.5 µM.

For `CN(C)CCOc1cc2nc(-c3ccccc3F)c(F)cc2c(N2C3CCC2CNC3)n1` [Compound 49], in experiment [1], the GI50 lay within 0.5 to 5 µM. For the same molecule, the equilibrium dissociation constant (Kd) in experiment [2] is above 5 µM.

Turning to `Fc1ccccc1-c1nc2cc(OCC34CCCN3CCC4)nc(N3CC4CCC(C3)N4)c2cc1F` [Compound 16], in experiment [1], the GI50 was in the range of 0.5 to 5 µM. Also, the equilibrium dissociation constant (Kd) in experiment [2] is above 5 µM.

With `Oc1cc(-c2ncc3c(N4CC5CCC(C4)N5)nc(OC[C@@]45CCCN4C[C@H](F)C5)nc3c2F)c2c(Cl)cccc2c1` [Compound 112], the GI50 in experiment [1] is below 0.5 µM. In addition, the dissociation constant (Kd) in experiment [2] was at most 0.5 µM.

Regarding `CN1CCC[C@H]1Cn1c(=O)nc(N2CC3CCC(C2)N3)c2cnc(-c3cc(O)cc4ccccc34)c(F)c21` [Compound 40], the GI50 in experiment [1] was above 5 µM. In experiment [2], the dissociation constant Kd was above 5 µM.

Turning to `Fc1ccc2cccc(-c3ncc4c(N5CC6CCC(C5)N6)nc(OC[C@@]56CCCN5C[C@H](F)C6)nc4c3F)c2c1Cl` [Compound 76], in experiment [1], the GI50 was below 0.5 µM. Moreover, in experiment [2], the Kd is at most 0.5 µM.

For `CN1CCC[C@H]1Cn1c(=O)nc(N2CC3CCC(C2)N3)c2cc(F)c(-c3cc(O)cc4cccc(Cl)c34)nc21` [Compound 41], the GI50 in experiment [1] is above 5 µM. Further, in experiment [2], the dissociation constant Kd was above 5 µM.

Consider `Oc1cc(-c2nc3cc(OC[C@@]45CCCN4C[C@H](F)C5)nc(N4CC5CCC(C4)N5)c3cc2Cl)c2c(Cl)cccc2c1` [Compound 43], for which, in experiment [1], the GI50 was in the range of 0.5 to 5 µM. The dissociation constant (Kd) in experiment [2] was above 5 µM.

`CN1CCC[C@@H]1COc1nc(-c2cccc3cccc(Cl)c23)c(F)c2nc(N3CCNCC3)ccc12` [Compound 53]: the GI50 in experiment [1] was below 0.5 µM. Moreover, the Kd in experiment [2] is above 5 µM.

Take `Fc1c(-c2cccc3cccc(Cl)c23)nc(OCC23CCCN2CCC3)c2ccc(N3CCNCC3)nc12` [Compound 31]: the GI50 in experiment [1] lay in the range of 0.5 to 5 µM. Further, in experiment [2], the Kd was above 5 µM.

Take `c1ccc2c(-c3ncc4c(N5CCNCC5)nc(OCC56CCCN5CCC6)cc4n3)cccc2c1` [Compound 18]: in experiment [1], the GI50 was 0.5 to 5 µM. Besides, the equilibrium dissociation constant (Kd) in experiment [2] was above 5 µM.

Consider `Fc1c(-c2cccc3cccc(Cl)c23)ncc2c(N3CCNCC3)cc(OCC34CCCN3CCC4)nc12` [Compound 67], for which the GI50 in experiment [1] is 0.5 to 5 µM. For the same molecule, the Kd in experiment [2] was above 5 µM.

Consider `CCc1cccc2cc(O)cc(-c3ncc4c(N5CC6CCC(C5)N6)nc(OC[C@@]56CCCN5C[C@H](F)C6)c(Cl)c4n3)c12` [Compound 61], for which the GI50 in experiment [1] was in the range of 0.5 to 5 µM. For the same molecule, in experiment [2], the Kd is at most 0.5 µM.

As for `CCc1cccc2cc(O)cc(-c3nc(C(F)F)c4c(N5CC6CCC(C5)N6)nc(OC[C@@]56CCCN5C[C@H](F)C6)nc4c3F)c12` [Compound 136], in experiment [1], the GI50 was below 0.5 µM. In addition, in experiment [2], the Kd is at most 0.5 µM.

For `C#Cc1c(F)ccc2cc(O)cc(-c3nc(OC)c4c(N5CC6CCC(C5)N6)nc(OC[C@@H]5CCCN5C)nc4c3F)c12` [Compound 160], the GI50 in experiment [1] was below 0.5 µM. Also, the Kd in experiment [2] is at most 0.5 µM.

On to `CN1CCC[C@H]1COc1nc(N2CC3CCC(C2)N3)c2cc(F)c(-c3cccc4cccc(Cl)c34)nc2n1` [Compound 8], for which the GI50 in experiment [1] is 0.5 to 5 µM. Further, the Kd in experiment [2] was above 5 µM.

Take `Clc1cc2c(N3CC4CCC(C3)N4)nc(OCC34CCCN3CCC4)nc2nc1-c1cccc2ccccc12` [Compound 2]: the GI50 in experiment [1] was above 5 µM. Further, the Kd in experiment [2] is above 5 µM.
